# Reference: the supplement of paper PMC6723410
# System: GUMC-403
# Assay: viability at highest tested concentration (max response) relative to DMSO (% of DMSO control); higher = less cytotoxic
# Settings: library / dose series: MIPE library, 11-point 1:3 dilution; top concentration 11.1 µM; 48 h
# How it was run: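 Plates of 1536 wells were seeded with 700 patient-derived GUMC-403 papilloma cells per well, grown by conditional reprogramming, in 5 μL F + Y medium and kept overnight at 37 °C. Compounds followed at 23 nL by pin tool over an 11-point 1:3 series, for 48 h. After a CellTiter-Glo luminescence read on a ViewLux, signals were set against vehicle wells as 100% and empty wells as 0%. The reported number is viability at the highest tested concentration relative to vehicle control.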
row,Compound,viability
1,CO[C@H]1/C=C/O[C@@]2(C)Oc3c(C)c(O)c4c(O)c(c(/C=N/N5CCN(C)CC5)c(O)c4c3C2=O)NC(=O)/C(C)=C\C=C\[C@H](C)[C@H](O)[C@@H](C)[C@@H](O)[C@@H](C)[C@H](OC(C)=O)[C@@H]1C,107

# Same assay, conditions: library / dose series: MIPE library, 11-point 1:3 dilution; top concentration 23 µM; 48 h
row,Compound,viability
1,C[C@]12CC(=O)[C@H]3[C@@H](CC\C4=C\C(=O)\C=C/[C@]34C)[C@@H]1CC[C@]2(O)C(=O)CO,131

# Same assay, conditions: library / dose series: MIPE library, 11-point 1:3 dilution; top concentration 46.1 µM; 48 h
row,Compound,viability
1,ClC1=CC=C(C=C1)C(C#N)C2=C(Cl)C=C(C=C2Cl)N3\N=C/C(=O)NC3=O (centres undefined),125
2,Cn1c(=O)c2[nH]cnc2n(C)c1=O,120
3,CC1=C(CC/C(C)=C/CCC2=CCC(C3=CC(=O)OC3O)OC2O)C(C)(C)CCC1 (centres undefined),99.7
4,O=C1\C=C/C[C@@H]2[C@H]3CCCN4CCC[C@@H](CN12)[C@@H]34,108
5,CC(C)n1cnc2c(NCCCCCCNC(=O)OC(C)(C)C)nc(NCCO)nc21,107
6,N#CC(c1ccnc(NCCc2cccnc2)n1)c1nc2ccccc2s1 (centres undefined),108
7,ClC1=CC=C2N/C3=N/C(=O)CN3CC2=C1Cl,94.9
8,O=C(O)CCn1c2c(c3ccccc31)C[C@H](N[S+](=O)([O-])c1ccc(F)cc1)CC2,116
9,N=C(CCSCc1csc(N=C(N)N)n1)N[S+](N)(=O)[O-],124
10,CCC[C@H](Nc1nc(-c2ccc(NC(=O)NCC)c(OC)c2)ncc1C)c1cccnc1,94
11,CC(C)c1onc(-c2c(Cl)cccc2Cl)c1COc1ccc(/C=C/c2cccc(C(=O)O)c2)c(Cl)c1,123
12,CC[C@@H]1C(=O)N(C)c2cnc(Nc3ccc(C(=O)NC4CCN(C)CC4)cc3OC)nc2N1C1CCCC1,41.8
13,C/C(O)=C(\C#N)C(=O)Nc1ccc(C(F)(F)F)cc1,94.3
14,CC1(C)CCC(=C(CN2CCN(CC2)C3=CC=C(C=C3)C(=O)N[S+]([O-])(=O)C4=CC(=C(N[C@H](CCN5CCOCC5)CSC6=CC=CC=C6)C=C4)[S+]([O-])(=O)C(F)(F)F)\C1)/C7=CC=C(Cl)C=C7,97
15,Cn1c(=O)c2c(ncn2CC(O)CO)n(C)c1=O (centres undefined),138
16,CC[C@H](NC(C)C)[C@H](O)c1ccc(O)c2[nH]c(=O)ccc12,123
17,C[C@@H]1C[C@H]2[C@@H]3\C=C(C)/C4=C/C5=C(C[C@]4(C)[C@H]3[C@@H](O)C[C@]2(C)[C@@]1(O)C(=O)COC(C)=O)C=N[N]5C6=CC=CC=C6,107
18,COC1=CC=C2C(=CC=NC2=C1)OC3=CC=C(NC(=O)\C4=C(C)\N(CC(C)(C)O)N(C4=O)C5=CC=CC=C5)C=C3F,80.3
19,C=C1/C(=C\C=C2/CCC[C@]3(C)[C@@H]([C@H](C)/C=C/[C@H](C)C(C)C)CC[C@@H]23)C[C@@H](O)C[C@@H]1O,150
20,COc1cc(Oc2ccnc3cc(OC)c(OC)cc23)ccc1NC(=O)NC(C)c1nccs1 (centres undefined),110
21,OC(=O)C1=CC=C(NC2=NC3=C(C\N=C(/C4=CC(=CC=C34)Cl)C5=C(F)C=CC=C5F)C=N2)C=C1,131
22,CC1=CC=C(C=C1)\C2=N\C3=CC=C(Cl)C=C3OC2,128
23,CCN(C)C(=O)Oc1cccc([C@H](C)N(C)C)c1,125
24,COc1nc(N)nc2c1ncn2[C@@H]1O[C@H](CO)[C@@H](O)[C@@H]1O,120

row,Compound,viability
1,CC(C)C(=O)Nc1ccc([N+](=O)[O-])c(C(F)(F)F)c1,85.7
2,COc1ccccc1OCCNCC(O)COc1cccc2[nH]c3ccccc3c12 (centres undefined),102
3,CC(=O)O.Cc1c(-c2ccc(O)cc2)n(Cc2ccc(OCCN3CCCCCC3)cc2)c2ccc(O)cc12,130
4,CCN1\C=C(\C(O)=O)C(=O)C2=C1N=C(N3CCNCC3)C(=C2)F,95.7
5,CN(C)c1nc(Cc2ccc(NC(=O)c3ccc4ccccc4c3)cc2)nc(Cl)c1CC(=O)O,114
6,CCCCNc1cc(C(=O)O)cc([S+](N)(=O)[O-])c1Oc1ccccc1,138
7,CCOC(=O)\C1=C(/C)N\C2=C(C1C3=CC=C(C=C3)C4=CC=CC=C4)\C(=O)CC(C)(C)C2 (centres undefined),82.6
8,COc1cc2nccc(Oc3ccc(NC(=O)NC4CC4)c(Cl)c3)c2cc1C(N)=O,89.9
9,CO[C@@H]1[C@@H](OC(N)=O)[C@@H](O)[C@H](OC2=CC=C3\C(=C(NC(=O)C4=CC=C([O-])C(=C4)CC=C(C)C)/C(=O)OC3=C2C)O)OC1(C)C,108
10,CO[C@H]1C[C@@H]2CC[C@@H](C)[C@@](O)(O2)C(=O)C(=O)N2CCCC[C@H]2C(=O)O[C@H]([C@H](C)C[C@@H]2CC[C@@H](OCCO)[C@H](OC)C2)CC(=O)[C@H](C)/C=C(/C)[C@@H](O)[C@@H](OC)C(=O)[C@H](C)C[C@H](C)\C=C/C=C\C=C/1C,84.8
11,CCC[C@H]1C[C@H](C(=O)N[C@@H]([C@@H]2O[C@@H](SC)[C@@H](O)[C@@H](O)[C@H]2O)[C@H](C)Cl)N(C)C1,118
12,O=C(O)c1cccc(-c2noc(-c3ccccc3F)n2)c1,118
13,Nc1nc(Nc2ccc([S+](N)(=O)[O-])cc2)nn1C(=O)c1c(F)cccc1F,111
14,O=C(N[C@H]1CN2CCC1CC2)c1ccc(Cl)cc1,121
15,CN(CCOc1ccc(CC2SC(=O)NC2=O)cc1)c1ccccn1 (centres undefined),118
16,S=P(N1CC1)(N1CC1)N1CC1,115
17,OC1=CC2=C(C=C1)C(=O)\C(=C(O2)\C3=CC(=C(O)C=C3)O)O,72.6
18,O=C(CN1C(=O)C2(CCCC2)NC[C@H]1c1cc(F)cc(F)c1)Nc1ccc2c(c1)C[C@@]1(C2)C(=O)Nc2ncccc21,148
19,CN[C@H](CC(C)C)C(=O)N[C@H]1C(=O)N[C@@H](CC(N)=O)C(=O)N[C@H]2C(=O)N[C@H]3C(=O)N[C@H](C(=O)N[C@H](C(=O)O)c4cc(O)cc(O)c4-c4cc3ccc4O)[C@H](O)c3ccc(c(Cl)c3)Oc3cc2cc(c3O[C@@H]2O[C@H](CO)[C@@H](O)[C@H](O)[C@H]2O[C@H]2C[C@](C)(N)[C@H](O)[C@H](C)O2)Oc2ccc(cc2Cl)[C@H]1O,119
20,CC(=O)O[C@H]1C[C@@H]2CC[C@@H]3[C@H](CC[C@@]4(C)[C@H]3C[C@H]([N+]3(C)CCCCC3)[C@@H]4OC(C)=O)[C@@]2(C)C[C@@H]1N1CCCCC1,130
21,OCCn1cc(-c2cnc3nnn(Cc4ccc5ncccc5c4)c3n2)cn1,106
22,Nc1ncnc2c1c(-c1cccc(OCc3ccccc3)c1)cn2C1CC(CN2CCC2)C1 (centres undefined),98.4
23,COc1cc(Nc2ncc(F)c(Nc3ccc4c(n3)NC(=O)C(C)(C)O4)n2)cc(OC)c1OC,89.6
24,Oc1ccc(OCc2ccccc2)cc1,110

row,Compound,viability
1,CC(C)(N)C(=O)N[C@H](COCc1ccccc1)C(=O)N1CCC2(CC1)CN([S+](C)(=O)[O-])c1ccccc12,103
2,Cc1cc(CN2CCN(c3c(Br)cnc4[nH]c(-c5ccc(N6CCN(C)CC6)cc5)nc34)CC2)no1,108
3,CCC[C@H](NC(=O)[C@@H]1[C@H]2CCC[C@H]2CN1C(=O)[C@@H](NC(=O)[C@@H](NC(=O)c1cnccn1)C1CCCCC1)C(C)(C)C)C(=O)C(=O)NC1CC1,117
4,N[S+](=O)([O-])c1cc(Cl)c(Cl)c([S+](N)(=O)[O-])c1,109
5,O=C(Nc1ccc(OC(F)(F)F)cc1)c1sccc1NCc1ccnc2ccccc12,91.2
6,C[C@@H]1C[C@H]2[C@@H]3CC\C4=C\C(=O)\C=C/[C@]4(C)[C@@]3(Cl)[C@@H](O)C[C@]2(C)[C@@]1(OC(=O)C5=CC=CO5)C(=O)CCl,133
7,CC(C)C[C@H](CN)CC(=O)O,117
8,COc1cc2c(cc1OC)CN(CCc1ccc(NC(=O)c3cccc4c(=O)c5cccc(OC)c5[nH]c34)cc1)CC2,132
9,COc1cc2c(cc1O)CCC1C2CC[C@@]2(C)C1CC[C@@H]2O (some centres undefined),101
10,N#C[C@H](O[C@@H]1O[C@H](CO[C@@H]2O[C@H](CO)[C@@H](O)[C@H](O)[C@H]2O)[C@@H](O)[C@H](O)[C@H]1O)c1ccccc1,98.6
11,C\C1=N\N(C(=O)C1)C2=CC=CC=C2,97.2
12,CCN(CC)C(=O)C1=CC=C(C=C1)C/2=C/C3(CCNCC3)OC4=CC=CC(=C24)O,125
13,CC(C)=CCC/C(C)=C/CC/C(C)=C/CC/C(C)=C/CC/C(C)=C/CC/C(C)=C/CC/C(C)=C/CC/C(C)=C/CC/C(C)=C/CO,104
14,NC\1=N\C(=O)N(\C=C1)[C@@H]2O[C@H](CO)[C@@H](O)[C@@H]2O,113
15,NC(=O)c1ccc(-c2nc(-c3ccc4c(c3)OCO4)c(-c3ccccn3)[nH]2)cc1,126
16,Oc1c(Cl)cc(Cl)c2cccnc12,128
17,O=C(NNC(=O)c1ccc(CN[S+](=O)([O-])c2ccc(F)c(Cl)c2)cc1)c1ccccc1,129
18,O=C1CSC(=O)N1C(CCc1ccncc1)COc1ccc(-c2cccc([N+](=O)[O-])c2)cc1 (centres undefined),79.8
19,CC(C)(S)[C@@H](N)C(=O)O,128
20,CO[C@H]1O[C@@H]2O[C@@]3(C)CC[C@H]4[C@H](C)CC[C@@H]([C@H]1C)[C@@]24OO3,116
21,Cc1c(OCC(F)(F)F)ccnc1C[S+]([O-])c1nc2ccccc2[nH]1 (centres undefined),82.7
22,CC(C)CC(N(C)C)C1(c2ccc(Cl)cc2)CCC1 (centres undefined),122

# Same assay, conditions: library / dose series: MIPE library, 11-point 1:3 dilution; top concentration 92.2 µM; 48 h
row,Compound,viability
1,O=C(O)[C@H](Cc1c[nH]c2ccccc12)N1C(=O)c2ccccc2C1=O,116
2,C[C@@H]1CC[C@@]2(CC[C@]3(C)\C(=C/C[C@@H]4[C@@]5(C)CC[C@H](O)C(C)(C)[C@@H]5CC[C@@]34C)[C@@H]2[C@H]1C)C(O)=O,95.2
